# Test results from US20240336606A1 (Suzhou Zelgen Biopharmaceuticals Co., Ltd., priority 2020, published 2024).
# Assays:
# H358 cells = experiment: Inhibition of H358 cell proliferation (CellTiter-Glo 3D, 7 days); format: cell-based; conditions: Homo sapiens, 168 h, NCI-H358, 7 days, read-out: IC50 (nM), inhibitory activity on H358 cell proliferation
# Experimental: • (a) The cells were thawed in T75 cell culture flasks:
# • (b) When 80-90% cell confluence was achieved, the cells were passaged.
# The diluted test compounds were added to a 384-well cell culture plate using a nanoliter pipetting system, and duplicate wells were set. An equal volume of medium was added to the positive control group; an equal volume of DMSO was added to the negative control group. The plate was centrifuged at 1000 rpm at room temperature for 1 min.
# The cells were inoculated into a) 384-well culture plate, an equal volume of cells was added to the negative control group, and only an equal volume of medium was added to the positive control group. The plate was centrifuged at 1000 rpm at room temperature for 1 min. The final concentration of DMSO in the final compounds was 0.5%. The plate was incubated in a thermostatic incubator at 37° C. with 5% CO2 for 7 days.
# CellTiter-Glo® 3D was added to b) 384-well cell culture plate at 20 μL/well. The plate was shaken at 320 rpm in the dark for 20 min, and incubated at room temperature in the dark for 2 h. The luminescence values were read using an Envision multi-mode microplate reader.
# The inhibition rates of the compounds at different concentrations were calculated in Excel, and then inhibition curves were plotted and relevant parameters including minimum inhibition rate, maximum inhibition rate and IC50 were calculated using GraphPad Prism software.
# MIA PaCa-2 tumor cells = experiment: Anti-tumor pharmacodynamic evaluation, MIA PaCa-2 subcutaneous xenograft; format: in vivo; conditions: MIA PaCa-2 in nude mice
# Experimental: 100 μL of a suspension containing 5×10^6 MIA PaCa-2 tumor cells was subcutaneously inoculated into the right posterior abdomens of nude mice. The health of the mice was monitored daily, and measurements were started when tumors grew to be palpable. The tumor volume was calculated as follows: 0.5×L×W^2, where L and W represent the length and width of the tumor, respectively. When the tumors grew to about 100 mm^3, the mice were randomized into groups. The mice were intragastrically administered a corresponding dose (50 mg/kg) of compound suspension in CMC-Na twice daily, and their general states were monitored at the same time. The tumors were measured 3 times a week, and the body weight was measured twice a week.
# [1] = target: T1, binding of KRAS^G12C to SOS1 (Homo sapiens, UniProt Q07889); experiment: Inhibition of the binding of KRAS^G12C to SOS1; conditions: Tag1-SOS1 / Tag2-KRAS^G12C, 2 h incubation at room temperature; read-out: IC50 (nM), inhibitory activity on the binding of KRAS^G12C to SOS1
# T1 construct: Tag1 (unspecified)
# T1 sequence (Q07889 1-1333): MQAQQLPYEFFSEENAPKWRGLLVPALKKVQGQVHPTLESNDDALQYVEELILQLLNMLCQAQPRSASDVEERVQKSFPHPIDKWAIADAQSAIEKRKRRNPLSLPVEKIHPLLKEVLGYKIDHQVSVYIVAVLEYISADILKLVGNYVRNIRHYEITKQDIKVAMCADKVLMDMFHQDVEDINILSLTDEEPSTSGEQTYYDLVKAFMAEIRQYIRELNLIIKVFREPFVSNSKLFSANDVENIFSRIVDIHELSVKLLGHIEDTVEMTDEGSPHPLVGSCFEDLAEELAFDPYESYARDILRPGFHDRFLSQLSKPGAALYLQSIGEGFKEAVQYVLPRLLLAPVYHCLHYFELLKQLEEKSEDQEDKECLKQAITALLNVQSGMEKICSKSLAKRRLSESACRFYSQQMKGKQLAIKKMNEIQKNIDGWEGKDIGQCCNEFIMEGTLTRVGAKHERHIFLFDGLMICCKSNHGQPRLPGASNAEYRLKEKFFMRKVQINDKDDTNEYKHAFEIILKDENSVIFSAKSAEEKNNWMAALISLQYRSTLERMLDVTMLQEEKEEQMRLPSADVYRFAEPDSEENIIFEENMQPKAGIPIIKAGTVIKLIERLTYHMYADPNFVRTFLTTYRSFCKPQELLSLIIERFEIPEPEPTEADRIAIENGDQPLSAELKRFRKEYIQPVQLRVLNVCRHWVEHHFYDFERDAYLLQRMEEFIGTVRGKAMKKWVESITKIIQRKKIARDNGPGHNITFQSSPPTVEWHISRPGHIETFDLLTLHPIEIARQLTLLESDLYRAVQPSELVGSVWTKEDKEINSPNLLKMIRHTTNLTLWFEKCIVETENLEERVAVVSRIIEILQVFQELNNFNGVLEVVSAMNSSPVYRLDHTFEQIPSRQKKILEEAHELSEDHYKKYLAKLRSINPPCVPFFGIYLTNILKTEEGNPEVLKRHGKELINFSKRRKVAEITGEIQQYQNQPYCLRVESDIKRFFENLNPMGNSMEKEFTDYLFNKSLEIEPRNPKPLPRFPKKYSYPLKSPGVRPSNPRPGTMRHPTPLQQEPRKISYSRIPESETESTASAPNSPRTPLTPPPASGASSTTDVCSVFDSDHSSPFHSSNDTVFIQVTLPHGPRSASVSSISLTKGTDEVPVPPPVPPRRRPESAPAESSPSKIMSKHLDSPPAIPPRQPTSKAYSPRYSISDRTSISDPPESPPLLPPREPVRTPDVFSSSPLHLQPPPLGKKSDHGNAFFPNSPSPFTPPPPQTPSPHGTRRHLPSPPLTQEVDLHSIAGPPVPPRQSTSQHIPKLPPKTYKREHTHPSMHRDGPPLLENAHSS
# How it was run: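 Tag1-SOS1 and Tag2-KRAS^G12C mixed with serially diluted compound (final 0.25% DMSO), then anti-Tag1-Tb3+ and anti-Tag2-XL665 added for 2 h at room temperature. IC50 from curve fit of the TR-FRET signal.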
# [2] = Day 21, 50 mg/kg intragastric twice daily
Compound,IC50 (H358 cells) [nM],"TV (mm^3) (tumor volume) Day 0 (MIA PaCa-2 tumor cells; Day 0 (at grouping), 50 mg/kg intragastric twice daily)",% TGI (tumor growth inhibition) (MIA PaCa-2 tumor cells; [2]) [%],TV (mm^3) (tumor volume) Day 21 (MIA PaCa-2 tumor cells; [2]),IC50 [1] [nM]
"COCCOc1cc2c(N[C@H](C)c3cccc(C(F)(F)C(C)(C)O)c3F)nc(C)nc2cc1OC [Example 72, (R)-1,1-Difluoro-1-(2-fluoro-3-(1-((7-methoxy-6-(2-methoxyethoxy)-2-methylquinazolin-4-yl)amino)ethyl)phenyl)-2-methylpropan-2-ol]",16.6,103,84.9,175,3.2
"COc1cc2nc(C)nc(N[C@H](C)c3cc(N)cc(C(F)(F)F)c3)c2cc1OCCOC1CC1(F)F (stereo partly drawn) [Example 82, N—((R)-1-(3-Amino-5-(trifluoromethyl)phenyl)ethyl)-6-(2-(2,2-difluorocyclopropyloxy)ethoxy)-7-methoxy-2-methylquinazolin-4-amine]",33,,,,4.5
"COCCOc1cc2c(N[C@H](C)c3cc(N)cc(OC(F)(F)F)c3)nc(C)nc2cc1OC [Example 83, (R)—N-(1-(3-Amino-5-(trifluoromethoxy)phenyl)ethyl)-7-methoxy-6-(2-methoxyethoxy)-2-methylquinazolin-4-amine]",187,,,,15
COCCOc1cc2c(N[C@H](C)c3cccc(C(F)(F)CO)c3)nc(C)nc2cc1OC [Example 85],39,,,,4.1
"COCCOc1cc2nc(C)nc(N[C@H](C)c3cccc(C(F)(F)C(C)(C)O)c3F)c2cc1OCCOC [Example 86, (R)-1-(3-(1-((6,7-Bis(2-methoxyethoxy)-2-methylquinazolin-4-yl)amino)ethyl)-2-fluorophenyl)-1,1-difluoro-2-methylpropan-2-ol]",11.8,,,,4.4
"COCCOc1cc2c(N[C@H](C)c3cccc(C(F)(F)C(C)(C)O)c3F)nc(C)nc2cc1C#N [Example 89, (R)-4-((1-(3-(1,1-Difluoro-2-hydroxy-2-methylpropyl)-2-fluorophenyl)ethyl)amino)-6-(2-methoxyethoxy)-2-methylquinazoline-7-carbonitrile]",130,,,,6.7
